# Patent US9656228B2, “Device and method for making solid beads” (Midatech Pharma (Wales) Limited, priority 2008, dated 2017)
# Experiments:
# [1] = Entrapment of active agent in PLGA beads with different anti-solvents, amount retained by HPLC and/or NMR; assay type: physicochemical; parameters: % active agent retained in solid beads: concentration or dose not given beside the values; settings: for % active agent retained in solid beads: 50:50 PLGA P2191 beads
# Experimental: The entrapment of pharmaceutically active compound was investigated to determine the effect of using different anti-solvents.
# The general methodology described above was used. Leuprolide acetate dissolved in DMSO/PLGA mixture at between 1-5 mg/ml of solution. The 50:50 lactide/glycolide polymer P2191 used in Example 3 was used in this Example, at a concentration of 10% w/v.
# The flow rates were as used in Example 1. On entering the cooling part of the device, the functional fluid formed frozen droplets. Desolvation of the frozen droplets caused the formation of solid beads.
# Various anti-solvents were investigated to determine the effect of the anti-solvent on the amount of active agent (leuprolide acetate) retained in the beads. HPLC and/or NMR were used to determine the amount of leuprolide acetate retained.
# [2] = Dissolution in warm water of particles precipitated from 10% w/v aqueous solution added dropwise to ethanol; assay type: physicochemical; settings: particles/precipitate formed in ethanol from 10% w/v solution in water
# Experimental: It is anticipated that such droplets may be of particular use in assays, since the saccharide would be readily soluble in water or aqueous solution. Solutions of 10% w/v of mannitol and dextran in water were prepared. The solutions were then added dropwise to ethanol. The dextran solution produced amorphous particles in ethanol. […] It is anticipated that a solution comprising both mannitol and dextran may be beneficial in that dextran appears to be suitable for forming discrete particles and mannitol may well be a suitable bulking agent. Furthermore, the mannitol may give the beads a more manageable consistency. Attempts were made to make solid beads from the polyol solutions using the apparatus of FIGS. 1-4. […] It is thought that further cooling of the apparatus is required in order to freeze the droplets. This may be achieved, for example, by improving the cooling capability of the cooler. A solution of 10% w/v of mannitol in dimethyl sulphoxide (DMSO) was prepared. […] It is therefore anticipated that droplets made from this solution would freeze using the apparatus of FIGS. 1 to 4, and that solvent may be extracted from the frozen droplets using an anti-solvent, such as ethanol. As mentioned above, it is anticipated that the saccharide-based droplets may be used in assays. […]
% active agent retained in solid beads ([1]; anti-solvent Ethanol and pentanol),% active agent retained in solid beads ([1]; anti-solvent Heptanol (batch 1)),% active agent retained in solid beads ([1]; anti-solvent Octanol:ethanol (80:20)),% active agent retained in solid beads ([1]; anti-solvent Octanol:ethanol (90:10)),% active agent retained in solid beads ([1]; anti-solvent Pentane),% active agent retained in solid beads ([1]; anti-solvent Pentanol),"retention of the active ([1]; lactide/glycolide polymer as bead polymer, various C3 to C8 alcohols as anti-solvent)",dissolution in warm water [2],Molecule
63%,78%,76%,84%,94%,92%,60 to 95%,,"CCNC(=O)[C@@H]1CCCN1C(=O)[C@H](CCCNC(=N)N)NC(=O)[C@H](CC(C)C)NC(=O)[C@@H](CC(C)C)NC(=O)[C@H](Cc1ccc(O)cc1)NC(=O)[C@H](CO)NC(=O)[C@H](Cc1c[nH]c2ccccc12)NC(=O)[C@H](Cc1c[nH]cn1)NC(=O)[C@@H]1CCC(=O)N1 [leuprolide acetate, Leuprolide acetate]"
,,,,,,,dissolved in warm water,OC[C@@H](O)[C@@H](O)[C@H](O)[C@H](O)CO [mannitol]
,,,,,,,readily dissolved in warm water,dextran
